In one test the target is T1, MPS1 (Homo sapiens, UniProt P33981).
T1 construct: purchased Abcam
T1 sequence (P33981 1-857): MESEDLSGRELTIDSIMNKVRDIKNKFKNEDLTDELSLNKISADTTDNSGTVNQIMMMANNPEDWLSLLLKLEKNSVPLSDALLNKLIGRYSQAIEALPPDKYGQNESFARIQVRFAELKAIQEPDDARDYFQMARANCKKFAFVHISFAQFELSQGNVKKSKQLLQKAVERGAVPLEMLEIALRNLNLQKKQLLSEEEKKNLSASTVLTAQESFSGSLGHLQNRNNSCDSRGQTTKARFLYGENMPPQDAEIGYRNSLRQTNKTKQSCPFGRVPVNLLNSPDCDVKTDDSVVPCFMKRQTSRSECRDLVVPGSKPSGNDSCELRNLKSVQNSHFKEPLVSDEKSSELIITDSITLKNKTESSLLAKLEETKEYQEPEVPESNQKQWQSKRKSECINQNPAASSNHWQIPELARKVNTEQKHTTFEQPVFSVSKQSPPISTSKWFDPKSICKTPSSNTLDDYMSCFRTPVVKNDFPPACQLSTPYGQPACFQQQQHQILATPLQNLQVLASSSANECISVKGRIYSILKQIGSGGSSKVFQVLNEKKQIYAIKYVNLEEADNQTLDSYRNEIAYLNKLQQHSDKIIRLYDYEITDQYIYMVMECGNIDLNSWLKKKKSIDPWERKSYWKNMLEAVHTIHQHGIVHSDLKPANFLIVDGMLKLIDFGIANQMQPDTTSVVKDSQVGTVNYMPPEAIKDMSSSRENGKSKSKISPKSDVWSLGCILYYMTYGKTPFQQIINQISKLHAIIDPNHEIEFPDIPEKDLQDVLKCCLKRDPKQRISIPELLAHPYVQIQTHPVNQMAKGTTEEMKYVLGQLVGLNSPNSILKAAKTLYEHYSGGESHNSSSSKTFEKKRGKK
Description: In vitro MPS1 inhibitory assay. In kind it is biochemical. As for the experimental part:
The methodology is as previously described ([Naud et al., 2013]). In brief, the experiment was conducted using 384-well black low-volume plates, which were loaded with MPS1 (concentration range of 3–12.5 nM), 5 μM fluorescence-labelled peptide (sequence: 5FAM-[…]-CONH2), 10 μM ATP, 1% (v/v) DMSO or the test compound (concentrations in 1% (v/v) DMSO ranged from 0.25 to 100 μM), and assay buffer. […]. The plate was read on a Caliper EZ reader II (PerkinElmer Life Sciences, Waltham, MA, United States). […]

Test [1] deals with drug-resistant liver cancer cells (R-HepG2). Description: MTT cytotoxicity assay, R-HepG2. The class given is cell-based. The settings on record: Homo sapiens, 72 h cell treatment. As for the experimental part: The cells (5 × 10^4 cells/well) were incubated overnight in 96-well plates. A series of solutions containing varying concentrations of inhibitors were added and incubated at 37°C for a period of 72 h. Subsequently, the culture medium was removed, followed by a subsequent incubation of the cells with a 5 mg/mL MTT stock solution for 4 h. After centrifugation, the precipitate was solubilized in DMSO and gently shaken for 15 min. Finally, the absorbance measurement at 570 nm was completed using a microplate reader. Data analysis was performed using GraphPad Prism 6.0 software.

For orientation: IC50 means the concentration that gives 50% inhibition. A low value points to inhibition by little substance.

For the compound `Cn1cc(-c2cc3cnc(Nc4ccc(-c5cncn5/C=C/C(=O)NO)cc4Cl)cc3n2C(=O)OC(C)(C)C)cn1` [MPH-5], the results for the IC50 (at MPS1; in test [1]) were 4.52 ± 0.21 nM and 0.27 µM, respectively. Further, on MPS1 (vs AZ3146), the “MPS1 IC50 of MPH-5 relative to AZ3146” value was “about 8 fold”.

These data come from PMC11439681, “The identification of potent dual-target monopolar spindle 1 (MPS1) and histone deacetylase 8 (HDAC8) inhibitors through pharmacophore modeling, molecular docking, molecular dynamics simulations, and biological evaluation” (Frontiers in Pharmacology, 2024).
